Laboratory results taken from US20110305632A1, “PROCESS FOR THE PREPARATION OF ASYMMETRICAL BIS(THIOSEMICARBAZONES)” (THE UNIVERSITY OF MELBOURNE, priority 2008, published 2011).

Experiment: Cyclic voltammetry of Cu(II) bis(thiosemicarbazonato) complexes (half-wave potentials and peak separations)
Assay type: physicochemical
Details: DMF
Description: Voltametric experiments were performed with an Autolab (Eco Chemie, Utrecht, Netherlands) computer-controlled electrochemical workstation.
Recent studies have shown that in vivo stability of bifunctional chelators of copper is not only dependent on the thermodynamic stability and kinetic inertness of the complex but also the susceptibility to reduction of Cu(II) to Cu(I). Intracellular reductants with thiols, such as cysteine-rich metallothioneins, may act as effective reductants of Cu(II) and scavengers of the labile Cu(I) ions.

[1] = cyclic voltammogram, scan rate 0.1 V s^−1, glassy carbon electrode
[2] = cyclic voltammogram, scan rate 0.1 V s^−1, potentials relative to SCE, glassy carbon electrode

Compound: CN=C([S-])N/N=C(C)/C(C)=N/NC([S-])=NC.[Cu+2] [Cu^II(atsm)]
- reversibility of the Cu(II)/Cu(I) reduction (cyclic voltammetry, glassy carbon electrode): quasi-reversible
- Cu^II/Cu^I Epa − Epc (anodic to cathodic peak separation) [1]: 102 mV
- Cu^III/Cu^II Epa − Epc (anodic to cathodic peak separation) [1]: 94 mV
- Cu^II/Cu^I E1/2 [2]: -0.63 V
- Cu^III/Cu^II E1/2 [2]: 0.75 V
- E1/2 of Cu(II)/Cu(I) reduction (vs. SCE (Fc/Fc+ 0.54 V), glassy carbon working electrode): −0.63 V
